For data set [1], the system named is CEM cells (human T-cell lymphoma). In words: Prevention of β-D-GA-related cytotoxicity by natural nucleosides, CEM cells. The data set is classed as cell-based. The settings on record: 50 μM natural nucleoside, 4 days, plot not shown. Here is the method:
(§1) The prevention of β-D-GA-related cytotoxicity in CEM cells (human T-cell lymphoma) and in the SUDHL-1 cells (human anaplastic large T-cell lymphoma cell line) was studied by adding natural nucleosides. This experiment was initiated by adding 50 μM of natural nucleosides into the media, together with increasing concentration of β-D-GA. CEM cells were seeded at 2500 cells per well and incubated for 4 days (=fast growing cell line with a doubling time of 1.3 days). SUDHL-1 cells were seeded at 10,000 cells/well, and incubated for 3 days (=slow growing cell line, doubling time 3 days). The result of this experiment is plotted in FIG. 4.

Data set [2] deals with SUDHL-1 cells (human anaplastic large T-cell lymphoma cell line). In words: Prevention of β-D-GA-related cytotoxicity by natural nucleosides, SUDHL-1 cells. The format is cell-based. The settings on record: 50 μM natural nucleoside; SUDHL-1 cells, 3 days; FIG. 4. Here is the method:
as §1

For data set [3], the system named is Parainfluenza Type 3 Virus. In words: organism not typed. The data set is classed as cell-based, Parainfluenza type 3 virus strain 14702.
In data set [4] the test system is Influenza A (H1N1). In words: microbe, parasite or virus in culture. The format is cell-based. The settings on record: Initial Test, Neutral Red.
Data set [5] has as its system Influenza A (H3N2). In words: microbe, parasite or virus in culture. The data set is classed as cell-based. The settings on record: Initial Test, Neutral Red.
In another data set the test system is HCV replicon. In words: HCV replicon system in Huh7 cells, replicon RNA by Q-RT-PCR (HCV ΔCt, ΔΔCt). The data set is classed as cell-based, hepatitis C virus. To be noted: for Ave. ΔΔCt: HCV RNA ΔCt minus rRNA ΔCt; for Ave. HCV RNA ΔCt: HCV replicon in Huh7 cells; for average ΔΔCt: HCV RNA ΔCt minus rDNA ΔCt. Background: In antiviral work, replicon cells carry a viral genome segment that copies itself.

Data set [6] relates to Parainfluenza Type 3 Virus. In words: organism not typed. The data set is classed as cell-based. To be noted: Initial Test, Neutral Red.
Data set [7] concerns Respiratory Syncytial Virus A. In words: microbe, parasite or virus in culture. The data set is classed as cell-based. To be noted: Initial Test, Neutral Red.
The test system of data set [8] is Influenza B. In words: microbe, parasite or virus in culture. The data set is classed as cell-based.
The test system of data set [9] is Influenza A (H1N1). In words: microbe, parasite or virus in culture. The format is cell-based.
In data set [10] the test system is Influenza A (H3N2). In words: microbe, parasite or virus in culture. The data set is classed as cell-based.
Data set [11] has as its system rRNA (host RNA polymerase I product). In words: rRNA ΔCt in Huh7 replicon cells (effect on host RNA polymerases). To be noted: Table 24, average of n. A digest of the protocol:
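Host RNA polymerase I activity estimated by quantifying rRNA in replicon cells relative to no-drug control, expressed as ΔCt. A specificity parameter is obtained by subtracting the HCV ΔCt and rRNA ΔCt values from each other.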

In data set [12] the test system is Influenza B. In words: microbe, parasite or virus in culture. The data set is classed as cell-based. The settings on record: Initial Test, Neutral Red.
In the next data set the test system is rDNA (host DNA). In words: rDNA ΔCt in Huh7 replicon cells (effect on cellular DNA polymerases). To be noted: Table 25, average of N. From the text:
In another typical setting, a compound might reduce the host RNA polymerase activity, but not the host DNA polymerase activity. Therefore, quantification of rDNA or beta-actin DNA (or any other host DNA fragment) and comparison with DNA levels of the no-drug control is a relative measurement of the inhibitory effect of the test compound on cellular DNA polymerases.
With the availability of both the HCV ΔCt data and the rDNA ΔCt, a specificity parameter can be introduced. This parameter is obtained by subtracting both ΔCt values from each other.

For data set [13], the system named is Respiratory Syncytial Virus A. In words: microbe, parasite or virus in culture. The format is cell-based, Respiratory Syncytial Virus strain A2.
In data set [14] the test system is Influenza A (H3N2). The data set is classed as cell-based, Influenza A virus A/Sydney/05/97.
In data set [15] the test system is Influenza B. The format is cell-based, Influenza B virus B/Beijing/184/93.
In data set [16] the test system is Influenza A (H1N1). The format is cell-based, Influenza A virus A/Beijing/262/95.
Where [17] appears, read: Initial Test, CPE Inhibition (Visual), read-out: EC50, Parainfluenza Type 3 Virus.
Setting [18] is: Initial Test, CPE Inhibition (Visual).
Setting [19] is: Initial Test, CPE Inhibition (Visual), read-out: EC50, RSV.
Setting [20] is: Confirmatory Test, Visual (EC50).

As a reminder, the melting point is the temperature of the solid-liquid transition. The EC50 is the midpoint of the concentration-response curve.

Where a name gives a salt, the structure may show the parent alone. Read-outs that look alike come from different tables or passages of the source. Bounds are passed on as bounds.

Regarding `Nc1ccn([C@@H]2O[C@H](CO)C[C@H]2O)c(=O)n1` (as salt: hemisulfate), the melting point is 202 to 203 °C (dec.).

On to `O=c1[nH]c(=O)n([C@@H]2O[C@H](CO)[C@@H](O)[C@H]2O)c2nn[nH]c12` (hydrate or solvate), for which the melting point is 164 to 166 °C (dec.).

For `Nc1ccn([C@@H]2O[C@H](CO)[C@@H](O)[C@H]2O)c(=O)n1` [cytidine], the “prevention of β-D-GA toxicity, in words” value in data set [1] and in [2] was “markedly prevent β-D-GA toxicity” throughout.

Regarding `O=c1ccn([C@@H]2O[C@H](CO)[C@@H](O)[C@H]2O)c(=O)[nH]1` [uridine], the “prevention of β-D-GA toxicity, in words” value in [1] and in [2] was “markedly prevent β-D-GA toxicity” throughout.

As for `Nc1ccn([C@@H]2O[C@H](CO)C[C@H]2O)c(=O)n1` [β-D-AJ], the EC50 was above 500 µM in data set [3] (setting [17]); 150 µM in the data set with Influenza A (H1N1) [4]; above 500 µM in the data set on Influenza A (H3N2) [5]; above 500 µM in data set [6]; above 500 µM in [7]; 150 µM in the data set with Influenza B [8] (setting [18]). In addition, the EC50 in the data set with Influenza A (H1N1) [9] (setting [18]) is 150 µM; with Influenza A (H3N2) [10] (setting [18]), above 500 µM; with Influenza B [12], 150 µM; in [13] (setting [19]), above 500 µM. Besides, in the data set on HCV replicon (Table 24), the “Ave. ΔΔCt” value was determined as 1.18. For the same compound, the “Ave. HCV RNA ΔCt” value turned out to be 2.92 in the data set with HCV replicon (Table 24, average of n) and 2.75 in the data set on HCV replicon (Table 25, average of N). For the same compound, the “average ΔΔCt” value with HCV replicon (Table 25) was 2.33. In data set [11], the “Ave. rRNA ΔCt” value turned out to be 1.74. Further, the “Ave. rDNA ΔCt” value in the data set with rDNA (host DNA) is listed as 0.43.

As to `O=c1nc(NO)ccn1[C@@H]1O[C@H](CO)[C@@H](O)[C@H]1O` [β-D-BS], the 50% effective concentration (EC50) was above 500 µM in data set [3] (setting [17]); 1.2 µM in the data set with Influenza A (H1N1) [4]; 4 µM with Influenza A (H3N2) [5]; 40 µM in [6]; below 0.5 µM in [7]; 0.6 µM in the data set on Influenza B [8] (setting [20]). For the same compound, the concentration giving a half-maximal response (EC50) with Influenza B [8] (setting [18]) was 0.5 µM; in the data set on Influenza A (H1N1) [9] (setting [20]), 1.3 µM; in the data set with Influenza A (H1N1) [9] (setting [18]), 1.5 µM; in the data set on Influenza A (H3N2) [10] (setting [20]) it was 0.5 µM; in the data set on Influenza A (H3N2) [10] (setting [18]) it was 1.5 µM; with Influenza B [12], 1.2 µM. Besides, the EC50 in [13] (setting [19]) was found to be 0.5 µM. Moreover, the “antiviral activity against Parainfluenza type 3 virus, in words” value in [3] (summary of Table 23) is listed as “no activity against Parainfluenza type 3 virus”. Also, the “EC90 (virus yield reduction)” value with Influenza A (H3N2) [14] is 0.32 µM; in the data set with Influenza A (H1N1) [16], 0.4 µM. The “Ave. ΔΔCt” value with HCV replicon (Table 24) is 3.83. The “Ave. HCV RNA ΔCt” value in the data set with HCV replicon (Table 24, average of n) turned out to be 4.89; in the data set on HCV replicon (Table 25, average of N) it was 4.81. Moreover, in the data set on HCV replicon (Table 25), the “average ΔΔCt” value turned out to be 4.45. Further, the “antiviral activity against influenza A and B, in words” value with Influenza A (H1N1) [9] (summary of Table 23, influenza A and B) was “potent in vitro antiviral capacities against influenza A and B”. The “EC90 (μM), virus yield reduction” value with Influenza B [15] is 0.6 µM. The “Ave. rRNA ΔCt” value in data set [11] was determined as 1.05. The “Ave. rDNA ΔCt” value with rDNA (host DNA) stood at 0.38. In addition, the “antiviral activity against RSV, in words” value in data set [13] (summary of Table 23) is recorded as “some activities against RSV”.

Take `O=c1[nH]c(=O)n([C@@H]2O[C@H](CO)[C@@H](O)[C@H]2O)cc1O` [β-D-CL, 5-hydroxyuridine]: the concentration for a half-maximal effect (EC50) in [3] (MA104, read-out: EC50, Parainfluenza Type 3 Virus) was 90 µM; in the data set with Influenza A (H1N1) [4] (Influenza A virus, H1N1, MDCK), 8 µM; with Influenza A (H3N2) [5] (Influenza A virus, H3N2, MDCK), above 5 µM; in [6] (MA104) it was 40 µM; in data set [7] (human respiratory syncytial virus, MA104), below 0.5 µM; in the data set on Influenza B [8] (Influenza B virus, MDCK, Initial Test, CPE Inhibition (Visual)) it was above 5 µM. The 50% effective concentration (EC50) in the data set on Influenza A (H1N1) [9] (Influenza A virus, H1N1, MDCK, Initial Test, CPE Inhibition (Visual)) was above 5 µM; in the data set with Influenza A (H3N2) [10] (Influenza A virus, H3N2, MDCK, Initial Test, CPE Inhibition (Visual)), above 5 µM; in the data set on Influenza B [12] (Influenza B virus, MDCK), above 5 µM; in data set [13] (human respiratory syncytial virus, MA104, read-out: EC50, RSV), 0.5 µM. Moreover, the “SI (Selectivity Index), Influenza A (H1N1)” value in the data set with Influenza A (H1N1) [4] was found to be 1.1. The “SI (Selectivity Index), Parainfluenza Type 3 Virus” value in [6] is given as 1. Further, the “SI (Selectivity Index), RSV” value in data set [7] is above 170; in data set [13] (setting [18]), 150. Also, the “antiviral activity against RSV, in words” value in data set [13] is “potent in-vitro anti-RSV compound”.

`OC[C@H]1O[C@@H](n2cnc3c(Cl)ncnc32)[C@H](O)[C@@H]1O` [β-D-DJ]: the 50% effective concentration (EC50) in data set [3] (setting [17]) is above 500 µM; in the data set on Influenza A (H1N1) [4] it was above 500 µM; in the data set on Influenza A (H3N2) [5], above 500 µM; in [6], 500 µM; in [7], above 500 µM; with Influenza B [8] (setting [18]) it was 50 µM. The EC50 is above 500 µM in the data set on Influenza A (H1N1) [9] (setting [18]), above 500 µM in the data set on Influenza A (H3N2) [10] (setting [18]), 110 µM with Influenza B [12] and 500 µM in [13] (setting [19]). Besides, the “Ave. ΔΔCt” value in the data set on HCV replicon (Table 24) was −0.11. Besides, the “Ave. HCV RNA ΔCt” value in the data set on HCV replicon (Table 24, average of n) amounted to 3.51; in the data set with HCV replicon (Table 25, average of N) it was 4.84. Besides, the “average ΔΔCt” value in the data set with HCV replicon (Table 25) was determined as 2.14. The “Ave. rRNA ΔCt” value in data set [11] is on record as 3.62. Besides, in the data set on rDNA (host DNA), the “Ave. rDNA ΔCt” value is given as 2.70.
